Data taken from PubChem BioAssay (NCI).
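Briefly, cells in 96-well plates were exposed to five compound concentrations for 48 h, and endpoints were estimated by linear interpolation. TGI is the concentration that stops growth completely.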

Legend:
Assay in all cases: DTP human tumour cell line panel, 48 h
OVCAR-8 ovarian = system: OVCAR-8 ovarian
UO-31 renal = system: UO-31 renal
CCRF-CEM leukemia = system: CCRF-CEM leukemia
SK-OV-3 ovarian = system: SK-OV-3 ovarian
SK-MEL-2 melanoma = system: SK-MEL-2 melanoma
SNB-19 CNS = system: SNB-19 CNS
CAKI-1 renal = system: CAKI-1 renal
MOLT-4 leukemia = system: MOLT-4 leukemia
HCC-2998 colon = system: HCC-2998 colon
SNB-75 CNS = system: SNB-75 CNS
OVCAR-5 ovarian = system: OVCAR-5 ovarian
A498 renal = system: A498 renal
NCI-H23 lung = system: NCI-H23 lung
U251 CNS = system: U251 CNS
DMS 273 small cell lung = system: DMS 273 small cell lung
OVCAR-4 ovarian = system: OVCAR-4 ovarian
M19-MEL melanoma = system: M19-MEL melanoma
UACC-257 melanoma = system: UACC-257 melanoma
A549 NSCLC = system: A549 NSCLC
HOP-62 NSCLC = system: HOP-62 NSCLC
COLO 205 colon = system: COLO 205 colon
K-562 leukemia = system: K-562 leukemia
HOP-18 NSCLC = system: HOP-18 NSCLC
UACC-62 melanoma = system: UACC-62 melanoma
TK-10 renal = system: TK-10 renal
LXFL 529 NSCLC = system: LXFL 529 NSCLC
HT29 colon = system: HT29 colon
SN12C renal = system: SN12C renal
SR leukemia = system: SR leukemia
SW-620 colon = system: SW-620 colon
OVCAR-3 ovarian = system: OVCAR-3 ovarian
SK-MEL-28 melanoma = system: SK-MEL-28 melanoma
DLD-1 colon = system: DLD-1 colon
SF-295 CNS = system: SF-295 CNS
KM12 colon = system: KM12 colon
SNB-78 CNS = system: SNB-78 CNS
SK-MEL-5 melanoma = system: SK-MEL-5 melanoma
HCT-116 colon = system: HCT-116 colon
RPMI-8226 leukemia = system: RPMI-8226 leukemia
RXF 393 renal = system: RXF 393 renal
HOP-92 NSCLC = system: HOP-92 NSCLC
IGROV1 ovarian = system: IGROV1 ovarian
ACHN renal = system: ACHN renal
LOX IMVI melanoma = system: LOX IMVI melanoma
NCI-H522 lung = system: NCI-H522 lung
MALME-3M melanoma = system: MALME-3M melanoma
786-0 renal = system: 786-0 renal
M14 melanoma = system: M14 melanoma
SF-268 CNS = system: SF-268 CNS
DMS 114 small cell lung = system: DMS 114 small cell lung
HCT-15 colon = system: HCT-15 colon
KM20L2 colon = system: KM20L2 colon
SF-539 CNS = system: SF-539 CNS
NCI-H460 lung = system: NCI-H460 lung
EKVX NSCLC = system: EKVX NSCLC
HL-60(TB) leukemia = system: HL-60(TB) leukemia
NCI-H226 lung = system: NCI-H226 lung

CCCCCCCC/C=C/CCCCCCCC(=O)N(O)C1CC(n2cc(C)c(=O)[nH]c2=O)OC1CO (centres undefined)
TGI (OVCAR-8 ovarian): 24.9 µM
TGI (UO-31 renal): 14.4 µM
TGI (CCRF-CEM leukemia): 20.4 µM
TGI (SK-OV-3 ovarian): 21.9 µM
TGI (SK-MEL-2 melanoma): 26.9 µM
TGI (SNB-19 CNS): 25.5 µM
TGI (CAKI-1 renal): 21.6 µM
TGI (MOLT-4 leukemia): 19.6 µM
TGI (HCC-2998 colon): 22.4 µM
TGI (SNB-75 CNS): 29.8 µM
TGI (OVCAR-5 ovarian): 22.3 µM
TGI (A498 renal): 32.2 µM
TGI (NCI-H23 lung): 23.2 µM
TGI (U251 CNS): 17 µM
TGI (DMS 273 small cell lung): 16.1 µM
TGI (OVCAR-4 ovarian): 25 µM
TGI (M19-MEL melanoma): 17.7 µM
TGI (UACC-257 melanoma): 26.7 µM
TGI (A549 NSCLC): 33.9 µM
TGI (HOP-62 NSCLC): 18.1 µM
TGI (COLO 205 colon): 16.7 µM
TGI (K-562 leukemia): 21 µM
TGI (HOP-18 NSCLC): 13.9 µM
TGI (UACC-62 melanoma): 11 µM
TGI (TK-10 renal): 22.7 µM
TGI (LXFL 529 NSCLC): 22.4 µM
TGI (HT29 colon): 22.4 µM
TGI (SN12C renal): 22.8 µM
TGI (SR leukemia): 20.5 µM
TGI (SW-620 colon): 23.8 µM
TGI (OVCAR-3 ovarian): 20.1 µM
TGI (SK-MEL-28 melanoma): 19.4 µM
TGI (DLD-1 colon): 18.4 µM
TGI (SF-295 CNS): 21.4 µM
TGI (KM12 colon): 23.3 µM
TGI (SNB-78 CNS): 45.8 µM
TGI (SK-MEL-5 melanoma): 19.5 µM
TGI (HCT-116 colon): 20.6 µM
TGI (RPMI-8226 leukemia): 50.1 µM
TGI (RXF 393 renal): 16.2 µM
TGI (HOP-92 NSCLC): 28.7 µM
TGI (IGROV1 ovarian): 17.6 µM
TGI (ACHN renal): 18 µM
TGI (LOX IMVI melanoma): 17.3 µM
TGI (NCI-H522 lung): 20.2 µM
TGI (MALME-3M melanoma): 22 µM
TGI (786-0 renal): 16 µM
TGI (M14 melanoma): 10.1 µM
TGI (SF-268 CNS): 26.3 µM
TGI (DMS 114 small cell lung): 10.9 µM
TGI (HCT-15 colon): 16.2 µM
TGI (KM20L2 colon): 16.4 µM
TGI (SF-539 CNS): 24.2 µM
TGI (NCI-H460 lung): 13.6 µM

CCOC(=O)C1=C(C)N2CCOC2(C)C(C(=O)OC)C1c1cccc(Cl)c1 (centres undefined)
TGI (OVCAR-8 ovarian): > 100 µM
TGI (UO-31 renal): > 100 µM
TGI (CCRF-CEM leukemia): > 100 µM
TGI (SK-OV-3 ovarian): > 100 µM
TGI (SK-MEL-2 melanoma): > 100 µM
TGI (SNB-19 CNS): > 100 µM
TGI (CAKI-1 renal): > 100 µM
TGI (EKVX NSCLC): > 100 µM
TGI (HCC-2998 colon): > 100 µM
TGI (SNB-75 CNS): > 100 µM
TGI (OVCAR-5 ovarian): > 100 µM
TGI (A498 renal): > 100 µM
TGI (NCI-H23 lung): > 100 µM
TGI (U251 CNS): > 100 µM
TGI (DMS 273 small cell lung): > 100 µM
TGI (M19-MEL melanoma): > 100 µM
TGI (UACC-257 melanoma): > 100 µM
TGI (A549 NSCLC): > 100 µM
TGI (HOP-62 NSCLC): > 100 µM
TGI (HL-60(TB) leukemia): > 100 µM
TGI (COLO 205 colon): > 100 µM
TGI (K-562 leukemia): > 100 µM
TGI (HOP-18 NSCLC): > 100 µM
TGI (UACC-62 melanoma): > 100 µM
TGI (TK-10 renal): > 100 µM
TGI (LXFL 529 NSCLC): > 100 µM
TGI (HT29 colon): > 100 µM
TGI (SN12C renal): > 100 µM
TGI (SR leukemia): > 100 µM
TGI (SW-620 colon): > 100 µM
TGI (OVCAR-3 ovarian): > 100 µM
TGI (SK-MEL-28 melanoma): > 100 µM
TGI (DLD-1 colon): > 100 µM
TGI (SF-295 CNS): > 100 µM
TGI (KM12 colon): > 100 µM
TGI (SNB-78 CNS): > 100 µM
TGI (SK-MEL-5 melanoma): > 100 µM
TGI (HCT-116 colon): > 100 µM
TGI (RPMI-8226 leukemia): > 100 µM
TGI (HOP-92 NSCLC): > 100 µM
TGI (IGROV1 ovarian): > 100 µM
TGI (ACHN renal): > 100 µM
TGI (LOX IMVI melanoma): > 100 µM
TGI (NCI-H522 lung): > 100 µM
TGI (MALME-3M melanoma): > 100 µM
TGI (786-0 renal): > 100 µM
TGI (M14 melanoma): > 100 µM
TGI (SF-268 CNS): > 100 µM
TGI (DMS 114 small cell lung): > 100 µM
TGI (HCT-15 colon): > 100 µM
TGI (KM20L2 colon): > 100 µM
TGI (SF-539 CNS): > 100 µM
TGI (NCI-H460 lung): > 100 µM

N/N=c1\c2ccccc2c2ccc3c4ccccc4/c(=N\N)c3c12
TGI (OVCAR-8 ovarian): > 100 µM
TGI (UO-31 renal): > 100 µM
TGI (CCRF-CEM leukemia): > 100 µM
TGI (SK-OV-3 ovarian): > 100 µM
TGI (SK-MEL-2 melanoma): > 100 µM
TGI (SNB-19 CNS): > 100 µM
TGI (EKVX NSCLC): > 100 µM
TGI (MOLT-4 leukemia): > 100 µM
TGI (HCC-2998 colon): > 100 µM
TGI (SNB-75 CNS): > 100 µM
TGI (OVCAR-5 ovarian): > 100 µM
TGI (NCI-H23 lung): > 100 µM
TGI (U251 CNS): > 100 µM
TGI (DMS 273 small cell lung): > 100 µM
TGI (OVCAR-4 ovarian): > 100 µM
TGI (M19-MEL melanoma): > 100 µM
TGI (UACC-257 melanoma): > 100 µM
TGI (A549 NSCLC): > 100 µM
TGI (HOP-62 NSCLC): > 100 µM
TGI (HL-60(TB) leukemia): > 100 µM
TGI (COLO 205 colon): > 100 µM
TGI (K-562 leukemia): > 100 µM
TGI (HOP-18 NSCLC): > 100 µM
TGI (UACC-62 melanoma): > 100 µM
TGI (LXFL 529 NSCLC): > 100 µM
TGI (HT29 colon): > 100 µM
TGI (SN12C renal): > 100 µM
TGI (SR leukemia): > 100 µM
TGI (SW-620 colon): > 100 µM
TGI (SK-MEL-28 melanoma): > 100 µM
TGI (DLD-1 colon): > 100 µM
TGI (NCI-H226 lung): > 100 µM
TGI (SF-295 CNS): > 100 µM
TGI (KM12 colon): > 100 µM
TGI (SNB-78 CNS): > 100 µM
TGI (SK-MEL-5 melanoma): > 100 µM
TGI (HCT-116 colon): > 100 µM
TGI (RPMI-8226 leukemia): > 100 µM
TGI (RXF 393 renal): > 100 µM
TGI (HOP-92 NSCLC): > 100 µM
TGI (IGROV1 ovarian): > 100 µM
TGI (ACHN renal): > 100 µM
TGI (NCI-H522 lung): > 100 µM
TGI (MALME-3M melanoma): > 100 µM
TGI (786-0 renal): > 100 µM
TGI (M14 melanoma): > 100 µM
TGI (SF-268 CNS): > 100 µM
TGI (DMS 114 small cell lung): > 100 µM
TGI (HCT-15 colon): > 100 µM
TGI (KM20L2 colon): > 100 µM
TGI (SF-539 CNS): > 100 µM
TGI (NCI-H460 lung): > 100 µM
